This is an account of results in US7692012B2, “Vanadium compounds as inhibitors of phosphatases” (Imperial College Innovations Limited, priority 2003, dated 2010).

The test system of series [1] is PKB phosphorylation (pSer473) in NIH3T3 cells. Nature of the series: Ly294002 dose dependence with and without bpV(pic). Format: cell-based. Particulars: NIH3T3, 10 μg/ml insulin, without bpV(pic). As to the method:
In order to find out whether bpV(pic) has an influence on Ly294002-dependent PKB inhibition we accomplished a dose response experiment applying concentrations from 0.01 up to 100 μM Ly294002 to two sets of quiescent fibroblasts and incubated for 20 min. One batch of cells were then further treated with 200 nM bpV(pic) (5 min) and all cells were finally stimulated with 10 μg/ml insulin for 15 min. Cell lysates were collected as described earlier. Calculations and graph were performed using GraphPad Prism.
(§1) All cell lysate samples were loaded on 10% SDS-PAGE and transferred to PVDF membranes for PKB analysis and nitrocellulose for phospho tyrosine detection. For PKB Western Blots membranes were blocked for 1 h with 5% milk powder in TBST followed by an incubation with anti Mass PKB antibody (1:1000) or anti phospho-PKB (Ser473) antibody (1:1000) in TBST for 2 h. Finally, membranes were exposed to a horseradish peroxidase-conjugated secondary antiserum (BIORAD) (1:1000) in 5% milk powder solution for 1 h. The Western Blots were developed with ECL™ solution (Amersham). In order to detect phosphorylated tyrosine residues nitrocellulose membranes were blocked for 1 h with 2.5% milk powder, first incubated with a specific anti phosphotyrosine antibody (4G10) (1:3000) for 1 h, and finally with horseradish peroxidase-conjugated secondary anti mouse antiserum. All PKB and Phospho-Tyrosine experiments were accomplished in three independent experiments and all membranes were re-probed using a specific tubulin antibody (1:1000). Density analysis of bands took place using the public domain NIH Image V1.62 program (developed at the U.S. National Institutes of Health and available on the Internet at http://rsb.info.nih.gov/nih-image/).

In series [2] the target is T1, PTEN (Homo sapiens, UniProt P60484).
T1 construct: GST (N); made in house; host or cells: Escherichia coli DH5 alpha
Nature of the series: Malachite green phosphate release assay with PI(3,4,5)P3. Format: biochemical. The following applies: for PTEN inhibition, summary in words: comment below PTEN table; for specificity of phosphatase inhibition: PTEN versus SopB, MTM, PTP; for IC50: head says published data, same values as the applicant's FIG. 1 study, read-out: PTEN Published data In vitro enzyme assay confirmed by in vivo data. The procedure: The coding region of the DNA sequence of human PTEN was cloned into a pGEX-4T2 expression vector (Pharmacia). Protein expression was induced overnight in the Escherichia coli DH5[…] strain using 100 μM IPTG at 18 C. GST-fusion proteins were purified according to the manufacturer's manual using glutathione sepharose 4B (Pharmacia). Protein integrity and specificity were confirmed on a Western Blot using GST antibody (Novagen).
Enzyme activity of recombinant PTEN was measured with a malachite green dye based phosphate release assay (No 230, No 83). The standard assay conditions were 200 mM Tris pH 7.4, 50 ng/μl BSA, and 15 ng/μl PTEN. The synthetic lipid PI(3,4,5)P3dC16 (Cell Signals) was used as a substrate for PTEN. The lipid was dissolved in methanol/H2O and stored at −20 C. Prior to the use in these PIPase experiments, an appropriate amount of lipid was dried down and resuspended in 1% Octylglycoside (Sigma). After 10 min of sonication lipid samples were ready to be added to the enzyme assay. All assays were started by adding the enzyme into the pre-heated buffer solution, containing PI(3,4,5)P3dC16. Linear PIPase reactions were performed at 30 C for 30 min in an incubation chamber. In order to stop the enzyme reaction, 0.7 volume of colour reagent (2.3 mg/ml malachite green in 3.6 M HCl and 17 mM ammonium molybdate) was added to the enzyme solution. The mixture was allowed to develop for 20 min and the absorbance at 625 nm was measured. For all inhibitor studies inhibitor concentrations from 0.1 nM up to 500 nM were pre-incubated with PTEN and the enzyme assays were started by adding 150 μM sonicated lipid. To normalize the phosphate release a phosphate standard curve was used. All experiments were repeated in tripletts. Calculations for IC50 values were performed using GraphPad Prism.

The target in another series is T2, MTM (Homo sapiens, UniProt Q13496).
T2 sequence (Q13496 1-603): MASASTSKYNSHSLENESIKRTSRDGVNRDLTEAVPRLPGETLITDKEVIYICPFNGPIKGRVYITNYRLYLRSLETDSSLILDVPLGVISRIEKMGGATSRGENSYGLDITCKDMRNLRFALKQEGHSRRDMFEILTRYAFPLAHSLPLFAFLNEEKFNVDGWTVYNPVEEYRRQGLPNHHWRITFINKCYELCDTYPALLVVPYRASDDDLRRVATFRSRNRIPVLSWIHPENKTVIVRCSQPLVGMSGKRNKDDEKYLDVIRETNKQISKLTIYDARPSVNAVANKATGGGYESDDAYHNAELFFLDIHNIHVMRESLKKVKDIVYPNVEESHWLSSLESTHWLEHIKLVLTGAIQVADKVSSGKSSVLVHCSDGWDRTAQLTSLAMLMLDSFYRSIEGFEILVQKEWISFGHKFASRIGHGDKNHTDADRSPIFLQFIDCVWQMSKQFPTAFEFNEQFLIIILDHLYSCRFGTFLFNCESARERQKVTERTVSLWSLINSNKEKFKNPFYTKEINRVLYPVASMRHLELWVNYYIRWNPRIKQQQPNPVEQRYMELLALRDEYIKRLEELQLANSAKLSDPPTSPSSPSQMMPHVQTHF
Nature of the series: MTM IC50 (inositol phosphatase inhibition). Format: biochemical.

In another series the target is T3, PTP-β (Homo sapiens, UniProt P23467).
T3 construct: purchased Upstate Biotechnology
Nature of the series: PTPase assay with pNPP as substrate. It is filed as biochemical. As to the method: Protein tyrosine phosphatase (PTPase) assays were performed using the synthetic substrate p-nitrophenylphosphate (pNPP) and the phosphatases PTP-1B and PTP-β (Upstate Biotechnology). The standard assay conditions were 25 mM HEPES pH 7.2, 50 mM NaCl, 5 mM DTT, 2.5 mM EDTA, 100 μg/ml BSA, 1 mM pNPP (Sigma) and 4 unit PTP-1B and 10 unit PTP-β, respectively. The assay was started by adding the enzyme and was carried out for 15 min at 30 C in a preheated ELISA reader chamber. The linear increase of absorbance was monitored every 30 seconds at a wavelength of 410 nm.

A further series addresses SopB (Salmonella typhimurium, UniProt O30916). Nature of the series: biochemical. Format: biochemical.
Series [3] deals with T4, PTEN (Mus musculus, UniProt O08586).
T4 construct: endogenous in cells; host or cells: NIH3T3
Put plainly: PTEN preliminary data (western blots). Format: cell-based. The procedure:
(§2) UM-UC-3 cells were treated in exactly the same manner. Cell samples were analysed on Western Blots with PKB antibodies.
as §1

In series [4] the test system is PKB phosphorylation (pSer473) in NIH3T3 cells. Put plainly: PKB assay: activation of insulin signalling pathway (insulin mimetic property), NIH3T3. The following applies: NIH3T3, 1 μM, 15 min, no insulin. It is filed as cell-based. The procedure:
(§3) NIH3T3 cells (passage 5-20) were grown in 10% NCS D-MEM (GIBCO BRL) in 6-well plates at 37 C and 5% CO2. Starvation of the cells was carried out over 72 h in D-MEM containing 0.5% NCS. Prior use medium was changed to 0% D-MEM. UM-UC-3 cells which is a PTEN^− bladder tumour cell line (NO 195, No 196) were grown in 10% MEM (GIBCO BRL), starved with 0.5% MEM also for three days and finally incubated with serum free MEM.
Cells were washed once with PBS and lysed using 80 μl SDS-PAGE buffer (250 mM Tris pH 6.8, 20% glycerol, 4% SDS, 0.01% bromphenol blue, 50 mM mercaptoethanol). Samples were boiled for 15 min and stored at −20 C until analysis on Western Blots as described in the last paragraph.
as §1

The target of series [5] is T4, PTEN. Nature of the series: PKB assay: dose dependence of PTEN inhibition in insulin-stimulated NIH3T3 cells (pSer473 Western blot). It is filed as cell-based. Particulars: for increase of PKB phosphorylation in comparison with the control: 20 nM compound, control 0.5 μg/ml insulin. As to the method:
as §3, §2, §1
A general note: In western blotting, separated proteins are transferred to a membrane and probed.

Series [6] relates to phosphorylation of tyrosine residues in NIH3T3 cells. Put plainly: Phosphotyrosine assay with NIH3T3 cells. It is filed as cell-based. Particulars: 10 μM, 15 min. As to the method: NIH3T3 cells were grown and starved as described earlier. After 72 h starvation cells were incubated for 15 min with 10% NCS, 50, 10 and […] insulin (Sigma), 10, 1, 0.1 and 0.01 μM bpV(pic) and bpV(phen), respectively. Cell lysates were prepared as described above and all samples were analysed on Western Blots using an anti phospho-tyrosine antibody (Upstate).
as §1

For another series, the system named is NIH3T3 cells. Put plainly: Phalloidin staining (actin re-arrangement, morphology). Format: cell-based. Particulars: 0.1 μM, 6 h and 24 h. As to the method:
In order to monitor morphological changes NIH3T3 cells were grown on 8-well chamber slides and incubated with concentrations of bpV(pic) and bpV(phen) between 0.1 and 10 μM for 6 h and 24 h, respectively. Fibroblasts were fixed with 4% para-formaldehyde (PFA), permeabilised with 0.2% Triton and blocked with 10% NCS (newborn calf serum). To stain actin filaments cells were incubated with TRITC-phalloidin (Sigma) (1:1000) for 1 h. Finally, nuclei were DAPI (Sigma) stained and mounted. Morphological analyses were assessed on a microscope using filters for TRITC and DAPI and pictures were captured using a camera.

[7] abbreviates: +IV compound, read-out: IC50 SopB.
Setting [8] is: +V compound, read-out: IC50 SopB.

Like-named read-outs stand apart in the source and are kept apart here.

T1 sequence (P60484 whole entry): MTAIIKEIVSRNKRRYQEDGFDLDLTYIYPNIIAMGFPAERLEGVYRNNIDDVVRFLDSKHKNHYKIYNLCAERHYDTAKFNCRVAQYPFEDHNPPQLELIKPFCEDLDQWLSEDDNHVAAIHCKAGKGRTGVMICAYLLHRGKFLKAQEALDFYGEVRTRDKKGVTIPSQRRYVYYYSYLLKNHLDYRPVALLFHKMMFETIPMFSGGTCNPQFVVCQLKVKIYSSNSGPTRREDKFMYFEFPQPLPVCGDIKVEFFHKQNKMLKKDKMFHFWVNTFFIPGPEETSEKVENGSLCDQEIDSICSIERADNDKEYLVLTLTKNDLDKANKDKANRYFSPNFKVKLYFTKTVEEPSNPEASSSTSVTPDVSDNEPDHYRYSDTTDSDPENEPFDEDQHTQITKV
T3 sequence (P23467 23-1997): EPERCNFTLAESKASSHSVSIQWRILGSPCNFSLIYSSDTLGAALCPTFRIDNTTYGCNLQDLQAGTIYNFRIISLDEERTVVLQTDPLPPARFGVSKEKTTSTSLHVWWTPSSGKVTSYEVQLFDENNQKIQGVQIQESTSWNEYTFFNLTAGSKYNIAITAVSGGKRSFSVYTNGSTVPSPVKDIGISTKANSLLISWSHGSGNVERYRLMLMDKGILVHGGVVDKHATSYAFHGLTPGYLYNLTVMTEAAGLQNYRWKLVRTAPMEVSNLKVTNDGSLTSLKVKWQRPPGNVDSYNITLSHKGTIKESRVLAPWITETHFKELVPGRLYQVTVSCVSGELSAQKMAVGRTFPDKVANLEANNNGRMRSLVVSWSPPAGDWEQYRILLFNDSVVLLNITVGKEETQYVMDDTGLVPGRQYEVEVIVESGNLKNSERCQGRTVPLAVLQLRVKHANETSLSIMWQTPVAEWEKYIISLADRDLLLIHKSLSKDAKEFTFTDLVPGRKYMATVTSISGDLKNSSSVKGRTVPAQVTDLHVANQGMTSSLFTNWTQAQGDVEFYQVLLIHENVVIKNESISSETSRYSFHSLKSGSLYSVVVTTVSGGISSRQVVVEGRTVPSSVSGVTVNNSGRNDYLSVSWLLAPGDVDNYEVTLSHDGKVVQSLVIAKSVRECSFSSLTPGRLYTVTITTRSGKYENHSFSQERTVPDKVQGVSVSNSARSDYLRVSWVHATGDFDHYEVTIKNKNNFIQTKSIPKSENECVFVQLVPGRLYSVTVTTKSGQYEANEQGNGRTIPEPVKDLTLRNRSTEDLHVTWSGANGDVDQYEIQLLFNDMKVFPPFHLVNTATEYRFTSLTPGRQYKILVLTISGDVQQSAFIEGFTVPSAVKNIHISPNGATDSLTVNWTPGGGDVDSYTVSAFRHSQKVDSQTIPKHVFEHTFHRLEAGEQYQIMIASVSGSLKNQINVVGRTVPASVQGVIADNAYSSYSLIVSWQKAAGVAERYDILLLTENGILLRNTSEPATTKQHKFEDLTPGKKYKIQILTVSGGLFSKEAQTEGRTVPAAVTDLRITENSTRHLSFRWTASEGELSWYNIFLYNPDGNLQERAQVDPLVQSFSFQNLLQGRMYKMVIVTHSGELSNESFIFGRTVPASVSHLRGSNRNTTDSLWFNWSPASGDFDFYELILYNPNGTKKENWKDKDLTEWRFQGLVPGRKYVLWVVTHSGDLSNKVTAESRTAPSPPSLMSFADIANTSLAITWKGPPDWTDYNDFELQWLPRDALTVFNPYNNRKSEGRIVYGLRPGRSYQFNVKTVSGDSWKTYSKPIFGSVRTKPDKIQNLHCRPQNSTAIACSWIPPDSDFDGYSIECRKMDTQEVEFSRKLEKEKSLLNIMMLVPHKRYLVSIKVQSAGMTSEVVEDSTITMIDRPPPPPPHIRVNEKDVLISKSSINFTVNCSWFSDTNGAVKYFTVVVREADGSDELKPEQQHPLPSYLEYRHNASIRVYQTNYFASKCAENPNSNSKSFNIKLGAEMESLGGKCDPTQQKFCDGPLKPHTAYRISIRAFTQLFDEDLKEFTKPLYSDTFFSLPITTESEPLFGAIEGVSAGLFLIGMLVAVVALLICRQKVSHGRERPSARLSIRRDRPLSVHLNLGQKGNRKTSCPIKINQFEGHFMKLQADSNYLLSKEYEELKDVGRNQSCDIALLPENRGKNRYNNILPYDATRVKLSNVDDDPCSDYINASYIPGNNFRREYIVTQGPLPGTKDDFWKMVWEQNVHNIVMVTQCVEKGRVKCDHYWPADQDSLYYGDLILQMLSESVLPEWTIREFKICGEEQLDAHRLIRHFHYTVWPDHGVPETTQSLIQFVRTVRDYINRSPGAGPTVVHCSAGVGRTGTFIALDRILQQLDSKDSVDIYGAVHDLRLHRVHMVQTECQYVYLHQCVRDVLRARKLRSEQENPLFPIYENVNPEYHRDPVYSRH
SopB, sequence (O30916 whole entry): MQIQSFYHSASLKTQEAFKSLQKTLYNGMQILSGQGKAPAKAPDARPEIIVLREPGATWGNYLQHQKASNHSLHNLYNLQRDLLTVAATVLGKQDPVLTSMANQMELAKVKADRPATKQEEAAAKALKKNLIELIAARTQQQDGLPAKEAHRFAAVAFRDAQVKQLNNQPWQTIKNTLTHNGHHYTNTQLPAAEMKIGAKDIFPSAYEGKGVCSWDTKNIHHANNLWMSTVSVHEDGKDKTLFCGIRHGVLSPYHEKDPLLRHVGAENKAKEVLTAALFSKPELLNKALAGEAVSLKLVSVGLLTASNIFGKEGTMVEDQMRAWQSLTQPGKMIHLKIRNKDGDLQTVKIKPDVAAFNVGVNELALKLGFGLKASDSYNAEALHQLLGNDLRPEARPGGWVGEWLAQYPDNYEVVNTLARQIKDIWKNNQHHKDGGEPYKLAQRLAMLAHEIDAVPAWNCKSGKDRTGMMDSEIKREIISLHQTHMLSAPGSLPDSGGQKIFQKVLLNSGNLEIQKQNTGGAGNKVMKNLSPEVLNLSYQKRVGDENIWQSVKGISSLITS
T4 sequence (O08586 whole entry): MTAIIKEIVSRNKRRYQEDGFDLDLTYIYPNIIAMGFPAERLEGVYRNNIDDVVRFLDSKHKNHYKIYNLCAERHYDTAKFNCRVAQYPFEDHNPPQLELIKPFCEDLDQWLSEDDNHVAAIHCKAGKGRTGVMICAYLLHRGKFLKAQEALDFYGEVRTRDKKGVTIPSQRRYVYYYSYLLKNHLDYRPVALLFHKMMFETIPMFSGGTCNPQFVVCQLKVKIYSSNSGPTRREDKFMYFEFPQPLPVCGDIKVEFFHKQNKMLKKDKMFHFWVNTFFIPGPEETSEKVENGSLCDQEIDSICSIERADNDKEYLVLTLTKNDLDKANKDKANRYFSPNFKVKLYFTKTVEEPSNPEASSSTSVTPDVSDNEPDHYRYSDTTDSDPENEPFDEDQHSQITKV

Regarding `O=c1cc(N2CCOCC2)oc2c(-c3ccccc3)cccc12` [Ly294002, reference compound], in series [1], the “concentration sufficient to inhibit PKB activation completely” value turned out to be 5 µM.
In the case of `O=C([O-])c1ncccc1O.O=C([O-])c1ncccc1O.[O]=[V+2]` [OHpic4], the “PTEN inhibition, summary in words” value at PTEN [2] is “very good inhibitors”. In addition, the figures for the IC50 on MTM (Compound(+IV)), on PTP-β (V(+IV) compounds) and at SopB (setting [7]) were 4030 ± 40 nM, 57500 ± 9400 nM and 588 ± 163 nM, respectively.
For the molecule `O=C([O-])c1ccc(O)cn1.[K+].[K+].[O-2].[O-][O-].[O-][O-].[V+5]` [bpV(HOpic), dipotassium bisperoxo(5-hydroxypyridine-2-carboxyl)oxovanadatel], the IC50 is 211 nM against PTEN [3]; 14 ± 2.3 nM on PTEN [2]; 96 nM at PTEN [5] (NIH3T3, 5 min compound then 0.5 μg/ml insulin 15 min, read-out: IC50 (in vivo PTEN inhibition, densitometry of pSer473 PKB)); 346 ± 24.8 nM against MTM (Compound(+V)); 33.2 ± 6.5 nM on SopB (setting [8]). The “specificity of phosphatase inhibition” value on PTEN [2] is “specifically inhibit PTEN, but not SopB, MTM or PTP”. Further, in series [4], the “phosphorylated PKB signal” value is given as “weak signal”. Moreover, the “increase of PKB phosphorylation in comparison with the control” value at PTEN [5] is reported as “about 20%”.
Regarding `[K+].[O-][O-].[O-][O-].[O]=[V+3].c1ccc(-c2ccccn2)nc1` [bpV(bipy), potassium bisperoxo (bipyridine) oxovanadate], the “phosphorylated PKB signal” value in series [4] is reported as “weak signal”. For the same molecule, the “increase of PKB phosphorylation in comparison with the control” value at PTEN [5] is “about 20%”. Further, the IC50 against PTP-β (aromatic bpVs, pNPP substrate) is 60.3 nM.
For `O.O.O.OO.OO.[K+].[OH-].[V].c1cnc2c(c1)ccc1cccnc12` [bpV(phen), potassium bisperoxo(1,10-phenanthroline)oxovanadate], the IC50 against PTEN [3] was found to be 275 nM; at PTEN [2], 38 ± 2.4 nM; against MTM (Compound(+V)), 407 ± 38.5 nM; at SopB (setting [8]) it was 102 nM. For the same molecule, the tyrosine phosphorylation result in series [6] is reported as “lower stimulation”. For the same molecule, in series [4], the “phosphorylated PKB signal” value was “no phosphorylation was visible”. Also, the “cellular morphology (actin staining)” value in the series on NIH3T3 cells is “remained unchanged”.
For `O=C([O-])c1nccc2ccccc12.[K+].[K+].[O-][O-].[O-][O-].[O]=[V+3]` [pV(isoqu)], the IC50 was found to be 101 nM at PTEN [3], 868 ± 187 nM on MTM (Compound(+V)), 349000 ± 26500 nM on PTP-β (V(+V) compounds) and 79.8 ± 9.7 nM at SopB (setting [8]).
Turning to `O=C([O-])c1ccccn1.O=C([O-])c1ccccn1.[O]=[V+2]` [pic4], the IC50 came out at 6350 ± 3920 nM against MTM (Compound(+IV)), 589000 ± 32900 nM against PTP-β (V(+IV) compounds) and 125 ± 1.65 nM at SopB (setting [7]).
On to `O=C([O][V](=[O])[O]C(=O)c1ccc2ccccc2n1)c1ccc2ccccc2n1` [quinolin4], for which the values for the IC50 on MTM (Compound(+IV)), against PTP-β (V(+IV) compounds) and against SopB were 9260 ± 40 nM, 212000 ± 9400 nM and 1960 ± 870 nM, respectively.
“dipotassium bisperoxo(phenylbiguanide)oxovanadate [pV(phenbig)]”: the figures for the IC50 against PTEN [3], against MTM (Compound(+V)) and on SopB (setting [8]) were 48.5 nM, 1890 ± 830 nM and 798 ± 41 nM, respectively. The “specificity of phosphatase inhibition” value at PTEN [2] is listed as “specifically inhibit PTEN, but not SopB, MTM or PTP”. For the same molecule, the “PTEN inhibition, summary in words” value at PTEN [2] is listed as “very good inhibitors”.
